Data taken from ChEMBL document CHEMBL3638431, “2-PYRIDYLOXY-4-NITRILE OREXIN RECEPTOR ANTAGONISTS” (2013).

Columns and labels:
[1] = molecular target: T1, Orexin/Hypocretin receptor type 1 (Rattus norvegicus, UniProt P56718); test: FLIPR Ca2+ Flux Assay: Chinese hamster ovary (CHO) cells expressing the rat orexin-1 receptor or the human orexin-2 receptor, are grown in Iscove's modified DMEM containing 2 mM L-glutamine, […], 1% hypoxanthine-thymidine supplement, 100 U/ml penicillin, 100 ug/ml streptomycin and 10% heat-inactivated fetal calf serum (FCS). The cells are seeded at 20,000 cells/well into Becton-Dickinson black 384-well clear bottom sterile plates coated with poly-D-lysine. All reagents were from GIBCO-Invitrogen Corp. The seeded plates are incubated overnight at 37° C. and 5% CO2. Ala-6,12 human orexin-A as the agonist is prepared as a 1 mM stock solution in 1% bovine serum albumin (BSA) and diluted in assay buffer (HBSS containing 20 mM HEPES, 0.1% BSA and 2.5 mM probenecid, pH7.4) for use in the assay at a final concentration of 70 pM. Test compounds are prepared as 10 mM stock solution in DMSO, then diluted in 384-well plates, first in DMSO, then assay buffer. On the day of the assay, cells are washed 3 times with 100 ul assay buffer and then incubated for 60 min (37° C., 5% CO2) in 60 ul assay buffer containing 1 uM Fluo-4AM ester, 0.02% pluronic acid, and 1% BSA. The dye loading solution is then aspirated and cells are washed 3 times with 100 ul assay buffer. 30 ul of that same buffer is left in each well. Within the Fluorescent Imaging Plate Reader (FLIPR, Molecular Devices), test compounds are added to the plate in a volume of 25 ul, incubated for 5 min and finally 25 ul of agonist is added. Fluorescence is measured for each well at 1 second intervals for 5 minutes and the height of each fluorescence peak is compared to the height of the fluorescence peak induced by 70 pM Ala-6,12 orexin-A with buffer in place of antagonist.; type: functional
T1 sequence (P56718 whole entry): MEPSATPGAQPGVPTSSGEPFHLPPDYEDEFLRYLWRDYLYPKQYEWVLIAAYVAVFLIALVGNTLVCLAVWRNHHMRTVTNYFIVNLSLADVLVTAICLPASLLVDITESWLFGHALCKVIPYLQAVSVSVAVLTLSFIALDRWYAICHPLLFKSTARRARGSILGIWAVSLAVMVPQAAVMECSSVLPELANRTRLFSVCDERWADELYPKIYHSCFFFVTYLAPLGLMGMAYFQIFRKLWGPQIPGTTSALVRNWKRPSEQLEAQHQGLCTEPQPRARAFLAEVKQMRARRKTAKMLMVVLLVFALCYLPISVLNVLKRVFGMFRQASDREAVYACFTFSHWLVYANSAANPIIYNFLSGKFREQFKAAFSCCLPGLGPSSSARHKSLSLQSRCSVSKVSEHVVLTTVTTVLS

[2] = molecular target: T2, Orexin/Hypocretin receptor type 1 (Homo sapiens, UniProt O43613); test: (§1) Radioligand Binding Assay: The inhibition constant (Ki) is determined using a radioligand binding assay (described in Bergman et. al. Bioorg. Med. Chem. Lett. 2008, 18, 1425-1430).
T2 sequence (O43613 whole entry): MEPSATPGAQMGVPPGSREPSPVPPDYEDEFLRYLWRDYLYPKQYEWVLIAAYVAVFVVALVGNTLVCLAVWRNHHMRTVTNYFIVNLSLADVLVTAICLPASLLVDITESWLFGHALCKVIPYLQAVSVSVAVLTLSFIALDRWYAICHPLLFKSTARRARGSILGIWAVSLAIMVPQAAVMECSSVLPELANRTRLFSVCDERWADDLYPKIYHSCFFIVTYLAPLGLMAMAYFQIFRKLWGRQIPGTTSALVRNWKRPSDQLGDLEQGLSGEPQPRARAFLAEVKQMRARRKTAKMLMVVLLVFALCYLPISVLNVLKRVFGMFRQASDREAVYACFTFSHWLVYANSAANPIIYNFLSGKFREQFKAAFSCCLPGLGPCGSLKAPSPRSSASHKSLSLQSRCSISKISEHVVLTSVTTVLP

Orexin receptor type 2 = molecular target: T3, Orexin receptor type 2 (Homo sapiens, UniProt O43614); test: as §1
T3 sequence (O43614 whole entry): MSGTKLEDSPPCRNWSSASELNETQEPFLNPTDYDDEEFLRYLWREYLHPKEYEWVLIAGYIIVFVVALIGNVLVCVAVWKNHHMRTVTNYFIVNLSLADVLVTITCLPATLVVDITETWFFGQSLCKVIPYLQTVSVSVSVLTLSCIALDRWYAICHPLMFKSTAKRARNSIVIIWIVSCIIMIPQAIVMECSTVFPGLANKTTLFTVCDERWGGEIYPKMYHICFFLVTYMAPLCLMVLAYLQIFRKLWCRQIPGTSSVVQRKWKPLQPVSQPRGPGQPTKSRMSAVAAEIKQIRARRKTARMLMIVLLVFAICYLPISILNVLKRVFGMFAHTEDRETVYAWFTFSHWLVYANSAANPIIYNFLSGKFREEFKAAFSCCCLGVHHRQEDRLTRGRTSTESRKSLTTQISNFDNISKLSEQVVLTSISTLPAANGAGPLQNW

| Structure (SMILES) | IC50 [1] | Ki [2] | Ki (Orexin receptor type 2) |
| --- | --- | --- | --- |
| C[C@@H]1CC[C@@H](Oc2cc(C#N)ccn2)CN1C(=O)c1ccccc1-n1nccn1 | 3.65 µM | 0.813 µM | 0.0016 µM |
| Cc1nc(-c2ccccc2C(=O)N2C[C@H](Oc3cc(C#N)ccn3)CC[C@H]2C)no1 | > 10 µM | 1.66 µM | 0.0045 µM |
| C[C@@H]1CC[C@@H](Oc2cc(C#N)ccn2)CN1C(=O)c1ccccc1-c1ncccn1 | 4.87 µM | 0.761 µM | 0.0013 µM |
| C[C@@H]1CC[C@@H](Oc2cc(C#N)ccn2)CN1C(=O)c1ccc(C#N)cc1-n1nccn1 | – | 34.5 µM | 1.36 µM |
